Assay: xn = mol fraction of the nth substance listed
Details: 100 kPa, Liquid; for viscosity: Capillary tube (Ostwald / Ubbelohde) method; for mass density: Vibrating tube method

CCCC(C)O (stereo not given) [pentan-2-ol] + CCCCCO
Details	mass density [kg/m3]	viscosity [mPa·s]
288.15 K, x2 = 0	813.34	5.057
288.15 K, x2 = 0.1	813.91	4.988
288.15 K, x2 = 0.2	814.5	4.929
288.15 K, x2 = 0.298	815.05	4.881
288.15 K, x2 = 0.4	815.6	4.842
288.15 K, x2 = 0.5	816.13	4.806
288.15 K, x2 = 0.601	816.66	4.772
288.15 K, x2 = 0.699	817.15	4.741
288.15 K, x2 = 0.798	817.63	4.714
288.15 K, x2 = 0.901	818.1	4.697
293.15 K, x2 = 0	809.38	4.174
293.15 K, x2 = 0.1	810	4.141
293.15 K, x2 = 0.2	810.63	4.114
293.15 K, x2 = 0.298	811.21	4.095
293.15 K, x2 = 0.4	811.79	4.079
293.15 K, x2 = 0.5	812.36	4.065
293.15 K, x2 = 0.601	812.92	4.054
293.15 K, x2 = 0.699	813.44	4.047
293.15 K, x2 = 0.798	813.95	4.045
293.15 K, x2 = 0.901	814.45	4.044
298.15 K, x2 = 0	805.35	3.398
298.15 K, x2 = 0.1	806.03	3.388
298.15 K, x2 = 0.2	806.7	3.382
298.15 K, x2 = 0.298	807.31	3.377
298.15 K, x2 = 0.4	807.93	3.373
298.15 K, x2 = 0.5	808.54	3.371
298.15 K, x2 = 0.601	809.14	3.377
298.15 K, x2 = 0.699	809.7	3.385
298.15 K, x2 = 0.798	810.24	3.402
298.15 K, x2 = 0.901	810.78	3.434
303.15 K, x2 = 0	801.24	2.82
303.15 K, x2 = 0.1	801.98	2.815
303.15 K, x2 = 0.2	802.7	2.815
303.15 K, x2 = 0.298	803.36	2.819
303.15 K, x2 = 0.4	804.02	2.833
303.15 K, x2 = 0.5	804.67	2.852
303.15 K, x2 = 0.601	805.32	2.875
303.15 K, x2 = 0.699	805.92	2.901
303.15 K, x2 = 0.798	806.5	2.932
303.15 K, x2 = 0.901	807.06	2.974
308.15 K, x2 = 0	797.05	2.336
308.15 K, x2 = 0.1	797.85	2.354
308.15 K, x2 = 0.2	798.63	2.373
308.15 K, x2 = 0.298	799.35	2.392
308.15 K, x2 = 0.4	800.06	2.416
308.15 K, x2 = 0.5	800.76	2.442
308.15 K, x2 = 0.601	801.45	2.472
308.15 K, x2 = 0.699	802.11	2.504
308.15 K, x2 = 0.798	802.74	2.54
308.15 K, x2 = 0.901	803.33	2.587
313.15 K, x2 = 0	792.78	1.99
313.15 K, x2 = 0.1	793.65	2.016
313.15 K, x2 = 0.2	794.49	2.039
313.15 K, x2 = 0.298	795.28	2.063
313.15 K, x2 = 0.4	796.05	2.09
313.15 K, x2 = 0.5	796.8	2.119
313.15 K, x2 = 0.601	797.54	2.152
313.15 K, x2 = 0.699	798.25	2.188
313.15 K, x2 = 0.798	798.92	2.226
313.15 K, x2 = 0.901	799.56	2.272
318.15 K, x2 = 0	788.42	1.706
318.15 K, x2 = 0.1	789.37	1.726
318.15 K, x2 = 0.2	790.29	1.751
318.15 K, x2 = 0.298	791.13	1.778
318.15 K, x2 = 0.4	791.96	1.809
318.15 K, x2 = 0.5	792.77	1.842
318.15 K, x2 = 0.601	793.58	1.878
318.15 K, x2 = 0.699	794.34	1.916
318.15 K, x2 = 0.798	795.06	1.956
318.15 K, x2 = 0.901	795.75	1.997
323.15 K, x2 = 0	783.99	1.472
323.15 K, x2 = 0.1	785.02	1.498
323.15 K, x2 = 0.2	786.01	1.522
323.15 K, x2 = 0.298	786.92	1.546
323.15 K, x2 = 0.4	787.82	1.575
323.15 K, x2 = 0.5	788.69	1.607
323.15 K, x2 = 0.601	789.56	1.642
323.15 K, x2 = 0.699	790.38	1.679
323.15 K, x2 = 0.798	791.17	1.718
323.15 K, x2 = 0.901	791.88	1.762
328.15 K, x2 = 0	779.46	1.306
328.15 K, x2 = 0.1	780.57	1.317
328.15 K, x2 = 0.2	781.64	1.335
328.15 K, x2 = 0.298	782.65	1.359
328.15 K, x2 = 0.4	783.63	1.387
328.15 K, x2 = 0.5	784.57	1.418
328.15 K, x2 = 0.601	785.5	1.45
328.15 K, x2 = 0.699	786.38	1.486
328.15 K, x2 = 0.798	787.22	1.524
328.15 K, x2 = 0.901	787.98	1.564

CCC(C)CO (stereo not given) [2-methyl-1-butanol] + CCCC(C)O
Details	mass density [kg/m3]	viscosity [mPa·s]
288.15 K, x2 = 0	823.35	6.439
288.15 K, x2 = 0.1	822.37	6.154
288.15 K, x2 = 0.2	821.39	5.978
288.15 K, x2 = 0.301	820.41	5.83
288.15 K, x2 = 0.4	819.44	5.687
288.15 K, x2 = 0.5	818.45	5.556
288.15 K, x2 = 0.6	817.47	5.435
288.15 K, x2 = 0.7	816.47	5.323
288.15 K, x2 = 0.8	815.45	5.232
288.15 K, x2 = 0.9	814.4	5.154
293.15 K, x2 = 0	819.64	5.3
293.15 K, x2 = 0.1	818.65	5.034
293.15 K, x2 = 0.2	817.65	4.881
293.15 K, x2 = 0.301	816.65	4.762
293.15 K, x2 = 0.4	815.65	4.649
293.15 K, x2 = 0.5	814.64	4.548
293.15 K, x2 = 0.6	813.63	4.459
293.15 K, x2 = 0.7	812.6	4.377
293.15 K, x2 = 0.8	811.57	4.314
293.15 K, x2 = 0.9	810.5	4.251
298.15 K, x2 = 0	815.85	4.501
298.15 K, x2 = 0.1	814.84	4.249
298.15 K, x2 = 0.2	813.83	4.106
298.15 K, x2 = 0.301	812.81	3.99
298.15 K, x2 = 0.4	811.79	3.882
298.15 K, x2 = 0.5	810.75	3.787
298.15 K, x2 = 0.6	809.72	3.703
298.15 K, x2 = 0.7	808.68	3.625
298.15 K, x2 = 0.8	807.63	3.564
298.15 K, x2 = 0.9	806.54	3.496
303.15 K, x2 = 0	812.12	3.825
303.15 K, x2 = 0.1	811.09	3.585
303.15 K, x2 = 0.2	810.04	3.46
303.15 K, x2 = 0.301	808.98	3.355
303.15 K, x2 = 0.4	807.92	3.253
303.15 K, x2 = 0.5	806.85	3.163
303.15 K, x2 = 0.6	805.78	3.093
303.15 K, x2 = 0.7	804.7	3.028
303.15 K, x2 = 0.8	803.62	2.973
303.15 K, x2 = 0.9	802.49	2.91
308.15 K, x2 = 0	808.29	3.265
308.15 K, x2 = 0.1	807.23	3.047
308.15 K, x2 = 0.2	806.15	2.928
308.15 K, x2 = 0.301	805.06	2.83
308.15 K, x2 = 0.4	803.97	2.735
308.15 K, x2 = 0.5	802.86	2.653
308.15 K, x2 = 0.6	801.76	2.589
308.15 K, x2 = 0.7	800.64	2.53
308.15 K, x2 = 0.8	799.52	2.482
308.15 K, x2 = 0.9	798.36	2.422
313.15 K, x2 = 0	804.41	2.783
313.15 K, x2 = 0.1	803.33	2.586
313.15 K, x2 = 0.2	802.22	2.481
313.15 K, x2 = 0.301	801.08	2.398
313.15 K, x2 = 0.4	799.95	2.317
313.15 K, x2 = 0.5	798.81	2.248
313.15 K, x2 = 0.6	797.67	2.196
313.15 K, x2 = 0.7	796.51	2.151
313.15 K, x2 = 0.8	795.35	2.112
313.15 K, x2 = 0.9	794.14	2.062
318.15 K, x2 = 0	800.47	2.379
318.15 K, x2 = 0.1	799.36	2.199
318.15 K, x2 = 0.2	798.21	2.11
318.15 K, x2 = 0.301	797.03	2.037
318.15 K, x2 = 0.4	795.86	1.968
318.15 K, x2 = 0.5	794.68	1.91
318.15 K, x2 = 0.6	793.49	1.869
318.15 K, x2 = 0.7	792.29	1.835
318.15 K, x2 = 0.8	791.09	1.805
318.15 K, x2 = 0.9	789.84	1.764
323.15 K, x2 = 0	796.47	2.06
323.15 K, x2 = 0.1	795.33	1.898
323.15 K, x2 = 0.2	794.13	1.817
323.15 K, x2 = 0.301	792.91	1.754
323.15 K, x2 = 0.4	791.7	1.696
323.15 K, x2 = 0.5	790.47	1.649
323.15 K, x2 = 0.6	789.24	1.618
323.15 K, x2 = 0.7	788	1.59
323.15 K, x2 = 0.8	786.75	1.56
323.15 K, x2 = 0.9	785.47	1.525
328.15 K, x2 = 0	792.41	1.787
328.15 K, x2 = 0.1	791.24	1.649
328.15 K, x2 = 0.2	789.99	1.578
328.15 K, x2 = 0.301	788.72	1.525
328.15 K, x2 = 0.4	787.46	1.476
328.15 K, x2 = 0.5	786.19	1.44
328.15 K, x2 = 0.6	784.91	1.418
328.15 K, x2 = 0.7	783.62	1.396
328.15 K, x2 = 0.8	782.33	1.371
328.15 K, x2 = 0.9	781	1.346
